Laboratory results taken from BindingDB's records for doi:10.1016/0960-894X(95)00403-G (1995).

Experiment: Compound was tested for inhibiting [3H]N-Methyl-scopolamine Binding to Muscarinic acetylcholine receptor M4 in NG 108-15 Cell

Compound: C[N+]1(C)CCC2(CC1)OC(=O)C(c1ccccc1)(c1ccccc1)O2
- Ki: 11 nM
